According to US6288028A, “BPC peptide salts with organo-protective activity, the process for their preparation and their use in therapy” (priority 1997, dated 2001):
Where no end group is shown, it is not given here.

How the values were obtained:
[1] = system: gastric lesions (96% ethanol); assay: Ethanol gastric lesions, NO-system; assay type: in vivo, rats; details: for effect on ethanol gastric lesions, agent given alone: NaBPC157 10 μg or 10 ng/kg i.p. with 96% ethanol i.g., 1 hour, L-NAME 5 mg/kg i.v., L-arginine 200 mg/kg i.v. 5 minutes before
Experimental: Some of the effects of NaBPC157 (10 μg or 10 ng/kg) were challenged in rats, such as the salutary activity against gastric lesions and NaBPC157's activity with respect to blood pressure maintenance. The lesions were obtained by using a 1 hour ethanol treatment (96%, i.g. (intragastrically)). NaBPC157 was simultaneously applied (i.p. (intraperitoneally)). In the blood pressure maintenance experiment, NaBPC157 was given intravenously (i.v.).
Also studied was the combined application of N^G -nitro-L-arginine methylester (L-NAME) (5 mg/kg i.v.), a competitive inhibitor of endothelium nitric oxide (NO)-generation and the NO-precursor L-arginine (200 mg/kg i.v.) (D-arginine was ineffective). In the gastric lesion assays, the NO-agents were given 5 minutes before the ethanol injury and the treatment with NaBPC157.

[2] = system: Pulmonary Hypertension Syndrome (PHS) and tissue lesions; assay: Pulmonary Hypertension Syndrome, acute and chronic toxicity; assay type: in vivo, chicks; details: for tissue or organ damage (pathohistology): acute and chronic toxicity
Experimental: The present experiments describe the effects of nitric oxide (NO) agonists and antagonists and the influence of NaBPC157 on the development of Pulmonary Hypertension Syndrome (PHS) and tissue lesions in chicks. Experiments investigating acute toxicity were conducted. These included single dose applications of saline (1 ml i.p.), NaBPC157 (10 μg/kg b.w.), L-NAME (NO antagonist/doses 50, 100, 150 mg/kg b.w.) and L-arginine (NO agonist/100 mg/kg b.w./with their combination (L-NAME+NaBPC157, L-NAME+L-arginine)). Pathohistological examinations of the spleen, heart, liver and lungs and hematological analyses were conducted. Furthermore, chronic toxicity experiments were conducted. The animals were treated daily during five weeks with L-NAME (10 mg/kg b.w.), L-arginine (100 mg/kg b.w.), NaBPC157 (10 μg/kg b.w.) and their combinations (L-NAME+NaBPC157, L-NAME+L-arginine) intraperitoneally. Seven animals from each group including controls (saline 1 ml i.p.) were sacrificed every week.

restraint stress lesions = assay: 48 hour-restraint stress ulcer model; assay type: in vivo, rats
Experimental: (§1) The effects of NaBPC157 (10 μg or 10 ng/kg i.p., i.g.) were investigated in rats in comparison with several reference standards in several experimental ulcer models (48 hour-restraint stress, subcutaneous cysteamine, intragastrical 96% ethanol ulcer tests, NSAIAs-lesions, DNFB (Dinitrofluorhenzene), reflux esophagitis following esophagojejunal termino-lateral anastomosis) (pre-/co-/post-treatment).

DNFB-intestinal lesions = assay: DNFB-intestinal lesions; set-up: species or system rats; details: rat, in vivo
Experimental: as §1

[3] = system: mobility in chronically stressed rats; assay: Chronic unpredictable stress, open field-immobility test; assay type: in vivo, rat; details: NaBPC157 10 μg, 10 ng; imipramine 30 mg; once daily
From the text: Various antidepressants have antiulcer activity and the models currently used in ulcer and depression research share a considerable degree of similarity. Therefore, the possibility that depression disorders could be effectively influenced by a primary antiulcer agent with cyto-/organo-protective activity such as NaBPC157 was investigated in two rat depression assays: the forced swimming test (a Porsolt's procedure) and the chronic unpredictable stress method (after five days of unpredictable stress protocol, once-daily drug application during the stress procedure and an open field-immobility test assessment at fourth and sixth days of medication).

[4] = system: portal blood pressure, organ lesions; assay: Chronic alcohol intoxication; assay type: in vivo, Male Albino Wistar rats; details: alcohol for three months; NaBPC157 10 μg, 10 ng/kg; propranolol, ranitidine 10 mg/kg b.w.
Experimental: The effects of NaBPC157 on chronic alcohol intoxication were examined. Male Albino Wistar rats were used for these experiments. The rats were drinking either commercial whiskey or ethanol (10-20% water solution) for three months. The application of NaBPC157 (10 μg, 10 ng/kg b.w.), propranolol (10 mg/kg b.w.), and ranitidine (10 mg/kg b.w.) (control rats received an equivolume of saline 5.0 ml/kg), either intragastrically or intraperitoneally, was conducted either prophylactically (10 days before alcohol initiation) or as a co-treatment together with alcohol or therapeutically (starting at the end of a two month period, i.e. during the last month of the experiment).

reflux esophagitis = assay: Reflux esophagitis after esophagojejunal anastomosis; set-up: species or system rats; details: rat, in vivo
Experimental: as §1

Toxicity observations = assay type: in vivo; details: high dosages (e.g. g/kg b.w., i.p.)
[5] = system: diazepam tolerance and withdrawal; assay: Diazepam tolerance and physical dependence, isoniazid latencies; set-up: species or system mice; details: mouse, in vivo
Experimental: In tolerance assays forty-two hours after the conditioning regimen, shorter preconvulsive latencies than that in healthy mice following an isoniazid treatment (800 mg/kg i.p.) were observed if diazepam (5.0 mg/kg i.p.) was given again to mice previously conditioned with diazepam alone. […] In this group at six hour intervals, unlike in diazepam conditioned mice, isoniazid preconvulsive latencies were still longer than in corresponding controls.

[6] = system: amphetamine stereotyped behavior; assay: Amphetamine stereotypes and excitability; assay type: in vivo, rats; details: no amphetamine
Experimental: The effects of NaBPC157 on the dopamine agonist amphetamine (10 mg/kg i.p.) stereotypes and on excitability were studied. NaBPC157 was applied as a prophylactic co-treatment or therapeutic salutary regimen (10 μg or 10 ng/kg i.p.). The stereotyped behaviour and excitability was induced in rats.

ethanol ulcer = assay: Intragastrical 96% ethanol ulcer test; assay type: in vivo, rats; details: reference peptides; related to treatment conditions
cysteamine ulcer = assay: Subcutaneous cysteamine ulcer test; assay type: in vivo, rats; details: reference peptides

**Q.** With `N=C(N)NCCC[C@@H](N)C(=O)O` [D-arginine] as the compound, how does the “effect on ethanol gastric lesions, agent given alone” value (from here on “effect on ethanol gastric lesions”) [1] read?
**A.** ineffective

**Q.** Which “induction of PHS” value ([2]; L-NAME) does the source give for `COC(=O)[C@@H](N)CCCNC(=N)N[N+](=O)[O-]` [L-NAME, N^G -nitro-L-arginine methylester] here?
**A.** caused PHS

**Q.** And the “tissue or organ damage (pathohistology)” value [2]?
**A.** caused severe tissue damage

**Q.** And the hematological analyses ([2]; in vivo)?
**A.** significant hemoglobin and leukocyte number decreases

**Q.** What about the “effect on ethanol gastric lesions” value [1] of the same compound?
**A.** had no effect

**Q.** With `N=C(N)NCCC[C@H](N)C(=O)O` [L-arginine] as the compound, how does the “tissue or organ damage (pathohistology)” value [2] read?
**A.** provoked predominantly congestion, edema and hemorrhages in all organs

**Q.** What about the “inhibition of the effects of L-NAME” value ([2]; in vivo) of the same compound?
**A.** successfully inhibited

**Q.** What about the “prevention of L-NAME-caused PHS” value ([2]; simultaneous application, L-arginine 100 mg/kg, NaBPC157 10 μg/kg b.w.) of the same compound?
**A.** prevented

**Q.** And the “antiulcer activity after L-NAME” value ([1]; L-NAME 5 mg/kg i.v. 5 minutes before ethanol)?
**A.** completely abolished

**Q.** And the “effect on ethanol gastric lesions” value [1]?
**A.** antiulcer effect

**Q.** Which “effect in restraint stress” value (restraint stress lesions) does the source give for `NC12CC3CC(CC(C3)C1)C2` [amatadine] here?
**A.** ineffective

**Q.** Which results are given for `CC(C)C[C@H]1C(=O)N2CCC[C@H]2[C@]2(O)O[C@](NC(=O)[C@@H]3C=C4c5cccc6[nH]c(Br)c(c56)C[C@H]4N(C)C3)(C(C)C)C(=O)N12` [bromocriptine]?
**A.** effect on DNFB-intestinal lesions (DNFB-intestinal lesions): only partially effective; effect in restraint stress (restraint stress lesions): ineffective

**Q.** With `CN/C(=N/CCSCc1nc[nH]c1C)NC#N` [cimetidine] as the compound, how does the “effect in restraint stress” value (restraint stress lesions) read?
**A.** ineffective

**Q.** Which “effect in restraint stress” value (restraint stress lesions) does the source give for `NC(N)=Nc1nc(CSCCC(N)=NS(N)(=O)=O)cs1` [famotidine] here?
**A.** ineffective

**Q.** For `CN(C)CCCN1c2ccccc2CCc2ccccc21` [imipramine], which “mobility in chronic unpredictable stress” value [3] is on record?
**A.** failure of imipramine activity

**Q.** Which portal blood pressure [4] does the source give for `CC(C)NCC(O)COc1cccc2ccccc12` (stereo not drawn) [propranolol] here?
**A.** markedly prevented and/or decreased

**Q.** For `CNC(=C[N+](=O)[O-])NCCSCc1ccc(CN(C)C)o1` [ranitidine], which portal blood pressure [4] is on record?
**A.** even more increased portal pressure values

**Q.** What about the “effect on reflux esophagitis” value (reflux esophagitis) of the same compound?
**A.** only partially effective

**Q.** For `C[C@H](N)C(=O)NCC(=O)N[C@H]1CSSC[C@@H](C(=O)O)NC(=O)[C@H](CO)NC(=O)[C@H]([C@@H](C)O)NC(=O)[C@H](Cc2ccccc2)NC(=O)[C@H]([C@@H](C)O)NC(=O)[C@H](CCCCN)NC(=O)[C@H](Cc2c[nH]c3ccccc23)NC(=O)[C@H](Cc2ccccc2)NC(=O)[C@H](Cc2ccccc2)NC(=O)[C@H](CC(N)=O)NC(=O)[C@H](CCCCN)NC1=O` [somatostatin], which “effect in restraint stress” value (restraint stress lesions) is on record?
**A.** ineffective

**Q.** For “GEPPPGKPADDAGLV [NaBPC157, Monosodium Salt of BPC157]”, which “tissue or organ damage (pathohistology)” value [2] is on record?
**A.** did not cause any tissue or organ damage

**Q.** And the “influence on basal parameters” value (Toxicity observations)?
**A.** No influence on different basal parameters

**Q.** What about the “toxicity at high dosages” value (Toxicity observations) of the same compound?
**A.** no toxicity

**Q.** What about the “tolerance effect of the agent itself” value [5] of the same compound?
**A.** does not produce any tolerance effect

**Q.** And the “gross behavior, agent alone” value [6]?
**A.** does not affect gross behavior or induce stereotypes

**Q.** With NPY as the compound, how does the “effect, ethanol” value (ethanol ulcer) read?
**A.** partial positive effect

**Q.** And the “protection, cysteamine” value (cysteamine ulcer)?
**A.** dose-dependent protection

**Q.** Which “effect, ethanol” value (ethanol ulcer) does the source give for secretin here?
**A.** partial positive effect

**Q.** And the “protection, cysteamine” value (cysteamine ulcer)?
**A.** dose-dependent protection

**Q.** For sucralfate, which “effect on reflux esophagitis” value (reflux esophagitis) is on record?
**A.** only partially effective
